# In patent US9339423B2, “Absorbent article” (UNICHARM CORPORATION, priority 2012, dated 2016):
# Read-outs that look alike come from different tables or passages of the source.
# Legend:
# [1] = at 20° C.; cited from earlier work
# [2] = Water solubility, visual evaluation after 24 hours
# Text: As used herein, the term “solubility” in regard to water solubility includes cases where the sample completely dissolves in deionized water to form a homogeneous mixture, and cases where the sample is completely emulsified. As used herein, “completely” means that no mass of the sample remains in the deionized water.
# [3] = Rewetting rate of sanitary napkin with blood modifying agent-coated top sheet; conditions: horse EDTA blood 3 g twice at 37±1° C.; agent coated about 5 g/m^2 on top sheet
# Protocol: (§1) A commercially available sanitary napkin was prepared. The sanitary napkin was formed from a top sheet, formed of a hydrophilic agent-treated air-through nonwoven fabric (composite fiber composed of polyester and polyethylene terephthalate, basis weight: 35 g/m^2), a second sheet, formed of an air-through nonwoven fabric (composite fiber composed of polyester and polyethylene terephthalate, basis weight: 30 g/m^2), an absorbent body comprising pulp (basis weight: 150-450 g/m^2, increased at the center section), an acrylic super-absorbent polymer (basis weight: 15 g/m^2) and tissue as a core wrap, a water-repellent agent-treated side sheet, and a back sheet composed of a polyethylene film.
# (§2) The skin contact surface of the top sheet of the sanitary napkin was coated with the aforementioned blood modifying agent. Each blood modifying agent was used directly, when the blood modifying agent was liquid at room temperature, or when the blood modifying agent was solid at room temperature it was heated to its […], and a control seam HMA gun was used for atomization of the blood modifying agent and coating onto the entire skin contact surface of the top sheet to a basis weight of about 5 g/m^2.
# (§3) (obtained by adding appropriate amount of ethylenediaminetetraacetic acid (hereunder, “EDTA”) to horse blood to prevent coagulation) was dropped through the hole using a pipette (once), and after 1 minute, 3 g of horse EDTA blood at 37±1° C. was again added dropwise through the acrylic board hole with a pipette (twice).
# [4] = Absorbent body migration rate of sanitary napkin; conditions: horse EDTA blood, after second dropping; agent coated about 5 g/m^2
# Protocol: as §1, §2, §3
# In addition to the rewetting rate evaluation, the “absorbent body migration rate” was also measured as the time until migration of blood from the top sheet to the absorbent body after the second dropping of blood. The absorbent body migration rate is the time from introducing the blood onto the top sheet, until the redness of the blood […] on the surface and in the interior of the top sheet.
Compound,Absorber migration rate [4] [s],also measured
CCCCC(=O)CCCC [5-nonanone],–,Vapor pressure [1]: about 230 Pa
CC(C)CCCCCCCCCCCCCCCOC(=O)CC(O)C(=O)OCCCCCCCCCCCCCCCC(C)C (stereo not drawn) [Diisostearyl malate],8,Water solubility (g) [2]: 20< g; Rewetting rate (%) [3]: 5.5%
CCCCCCCCOC(=O)CCCCC(=O)OCCCCCCCC [Dioctyl adipate],6,–
"CCCCCCCCCCCCOC(=O)CCCCCCCCCCC [ELECTOL WE20, Ester of dodecanoic acid (C12) and dodecyl alcohol (C12)]",5,–
"CCCCCCCCCCCCCC(=O)OCCCCCCCCCCCC [ELECTOL WE40, Ester of tetradecanoic acid (C14) and dodecyl alcohol (C12)]",4,–
"CCCCCCCCCCCC(=O)OCC(O)CO (stereo not drawn) [Monomuls 90-L2 lauric acid monoglyceride, lauric acid monoglyceride]",7,–
CCCCC(CC)C(=O)OCC(COC(=O)C(CC)CCCC)OC(=O)C(CC)CCCC (stereo not drawn) [PANACET 800B],3,Water solubility [2]: <0.05 g; Rewetting rate (%) [3]: 2.0%
CCCCCCCC(=O)OCC(COC(=O)CCCCCCC)OC(=O)CCCCCCC [PANACET 800],3,–
CCCCOC(=O)CC(CC(=O)OCCCC)(OC(C)=O)C(=O)OCCCC [Tributyl O-acetylcitrate],8,"Water solubility ([2]; in 100 g of water at 25° C., 24 hours): <0.05 g; Rewetting rate (%) [3]: 6.2%"
"CCCCC(CC)C(=O)OCC(C)(C)COC(=O)C(CC)CCCC (stereo not drawn) [UNISTAR H-208BRS, Neopentylglycol di-2-ethylhexanoate]",5,–
Caprylic acid diglyceride,9,–
Isopropyl citrate,5,–
